Reference: ChEMBL document CHEMBL5226336, “Design, Synthesis, and Evaluation of [18F]T-914 as a Novel Positron-Emission Tomography Tracer for Lysine-Specific Demethylase 1” (J Med Chem, 2021)
One block for each molecule: values may come before it. The source made the active and inactive calls. The calls are words filed in the database; no cut-off is given here.

Columns and labels:
LSD1/CoREST complex = LSD1/CoREST complex (Homo sapiens, UniProt O60341); test: Inhibition of human recombinant LSD1/CoREST using ART(mK)QTARKSTGGKAPRKQLAGGK-biotin as substrate incubated for 15 mins; format: protein-complex assay
[1] = molecular target: P-glycoprotein (ABCB1, MDR1) (Homo sapiens, UniProt P08183); test: Substrate activity at p-glycoprotein (unknown origin) expressed in pig LLC-PK1 cells coexpressing MDR1 assessed as efflux ratio at apparent permeability across basolateral to apical side to apparent permeability across apical to basolateral side at 1 uM measured after 1 hr by LC-MS/MS analysis; format: ADME, cell-based
P-glycoprotein (ABCB1, MDR1), sequence (P08183 whole entry): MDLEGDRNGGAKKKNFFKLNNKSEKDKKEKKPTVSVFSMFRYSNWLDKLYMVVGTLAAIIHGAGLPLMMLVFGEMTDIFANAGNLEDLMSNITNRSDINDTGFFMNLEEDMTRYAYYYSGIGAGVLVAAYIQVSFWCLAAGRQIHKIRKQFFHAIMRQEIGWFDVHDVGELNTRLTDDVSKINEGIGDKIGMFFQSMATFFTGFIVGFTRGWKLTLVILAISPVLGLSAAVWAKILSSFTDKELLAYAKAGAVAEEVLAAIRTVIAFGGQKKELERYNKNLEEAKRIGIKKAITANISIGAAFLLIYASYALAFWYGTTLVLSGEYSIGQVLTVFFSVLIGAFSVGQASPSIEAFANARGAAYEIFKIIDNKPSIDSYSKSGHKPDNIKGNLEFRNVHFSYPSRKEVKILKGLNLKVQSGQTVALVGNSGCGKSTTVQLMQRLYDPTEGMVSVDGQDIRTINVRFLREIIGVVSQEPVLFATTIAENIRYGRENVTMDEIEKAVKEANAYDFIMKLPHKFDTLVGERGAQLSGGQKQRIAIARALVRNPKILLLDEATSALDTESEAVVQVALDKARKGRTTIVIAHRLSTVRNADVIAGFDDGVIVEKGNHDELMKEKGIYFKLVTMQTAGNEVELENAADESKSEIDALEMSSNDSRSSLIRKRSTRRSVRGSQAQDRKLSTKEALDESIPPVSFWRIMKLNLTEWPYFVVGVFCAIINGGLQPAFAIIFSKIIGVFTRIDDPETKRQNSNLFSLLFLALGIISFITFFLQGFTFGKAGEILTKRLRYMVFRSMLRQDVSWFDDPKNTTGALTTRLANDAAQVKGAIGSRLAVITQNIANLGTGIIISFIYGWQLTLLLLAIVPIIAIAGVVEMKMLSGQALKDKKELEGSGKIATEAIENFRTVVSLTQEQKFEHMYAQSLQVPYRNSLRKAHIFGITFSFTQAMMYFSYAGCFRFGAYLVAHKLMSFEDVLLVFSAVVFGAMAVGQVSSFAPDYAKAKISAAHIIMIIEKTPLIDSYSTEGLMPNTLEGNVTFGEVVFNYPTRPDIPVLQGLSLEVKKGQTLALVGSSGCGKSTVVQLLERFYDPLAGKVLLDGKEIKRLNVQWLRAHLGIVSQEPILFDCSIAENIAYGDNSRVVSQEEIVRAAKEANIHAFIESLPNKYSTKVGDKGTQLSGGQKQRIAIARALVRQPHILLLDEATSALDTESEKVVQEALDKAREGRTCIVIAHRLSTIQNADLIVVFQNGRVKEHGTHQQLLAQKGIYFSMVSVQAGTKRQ

[2] = Drug metabolism in Sprague-Dawley rat brain assessed as 6-fluoronicotinic acid level in cortex at 10 mg/kg, iv measured after 1 hr by HPLC-UV and LC/MS analysis; format: ADME, organism-based; details: in vivo
[3] = Drug metabolism in Sprague-Dawley rat brain assessed as 6-fluoronicotinic acid formation in cortex at 10 mg/kg, iv measured after 4 hrs by HPLC-UV and LC/MS analysis; format: ADME, organism-based; details: in vivo
[4] = Drug uptake in Sprague-Dawley rat brain at 1 mg/kg, iv measured after 4 hrs by LC-MS analysis; format: ADME, organism-based; details: in vivo, BLD = below limit of detection
[5] = Drug metabolism in Sprague-Dawley rat brain assessed as N-(6-fluoropyridin-3-yl)-N-methylacetamide level in cortex at 1 mg/kg, iv measured after 1 hr by HPLC-UV and LC/MS analysis; format: ADME, organism-based; details: in vivo
[6] = Drug metabolism in Sprague-Dawley rat brain assessed as N-(6-fluoropyridin-3-yl)-N-methylacetamide level in cortex at 1 mg/kg, iv measured after 4 hrs by HPLC-UV and LC/MS analysis; format: ADME, organism-based; details: in vivo
[7] = Drug metabolism in Sprague-Dawley rat brain assessed as N-(6-fluoro-4-methylpyridin-3-yl)acetamide level in cortex at 10 mg/kg, iv measured after 1 hr by HPLC-UV and LC/MS analysis; format: ADME, organism-based; details: in vivo
[8] = Drug metabolism in Sprague-Dawley rat brain assessed as N-(6-fluoro-4-methylpyridin-3-yl)acetamide level in cortex at 10 mg/kg, iv measured after 4 hrs by HPLC-UV and LC/MS analysis; format: ADME, organism-based; details: in vivo
[9] = Drug uptake in Sprague-Dawley rat brain at 1 mg/kg, iv measured after 1 to 24 hrs by LC-MS analysis; format: ADME, organism-based; details: in vivo, time 1-24 hrs
[10] = Retention time of the compound by HPLC method; format: physicochemical
[11] = Drug metabolism in Sprague-Dawley rat brain assessed as fluorine-containing metabolite level in cortex at 10 mg/kg, iv measured after 1 to 4 hrs by HPLC-UV and LC/MS analysis; format: ADME, organism-based; details: in vivo, time 1-4 hrs
[12] = Drug metabolism in cryopreserved human hepatocytes assessed as hydrolysis-mediated 6-fluoro-4-methylnicotinic acid formation measured for 6 hrs by HPLC-UV and LC/MS analysis; format: ADME, cell-based, Hepatocyte
[13] = Drug metabolism in cryopreserved human hepatocytes assessed as N-acetylglucosamine conjugation-mediated metabolite formation measured for 6 hrs by HPLC-UV and LC/MS analysis; format: ADME, cell-based, Hepatocyte
[14] = Drug metabolism in cryopreserved rat hepatocytes assessed as hydrolysis-mediated 6-fluoro-4-methylnicotinic acid formation measured for 6 hrs by HPLC-UV and LC/MS analysis; format: ADME, cell-based, Hepatocyte
[15] = Drug metabolism in cryopreserved rat hepatocytes assessed as N-acetylglucosamine conjugation-mediated metabolite formation measured for 6 hrs by HPLC-UV and LC/MS analysis; format: ADME, cell-based, Hepatocyte
[16] = Drug metabolism in cryopreserved monkey hepatocytes assessed as N-acetylglucosamine conjugation-mediated metabolite formation measured for 6 hrs by HPLC-UV and LC/MS analysis; format: ADME, cell-based, Macaca mulatta, Hepatocyte; details: rhesus monkey
[17] = Drug metabolism in cryopreserved monkey hepatocytes assessed as hydrolysis-mediated 6-fluoro-4-methylnicotinic acid formation measured for 6 hrs by HPLC-UV and LC/MS analysis; format: ADME, cell-based, Macaca mulatta, Hepatocyte; details: rhesus monkey
[18] = molecular target: Lysine-specific histone demethylase 1A (Homo sapiens) (UniProt O60341); test: Binding affinity to human recombinant LSD1 assessed as compound-FAD adduct formation at 1 mM incubated for 1 hr by LC-MS analysis
[19] = molecular target: T1, Amine oxidase [flavin-containing] A (Homo sapiens, UniProt P21397); test: Inhibition of MAO-A (unknown origin) incubated for 10 mins followed by MAO substrate addition and measured after 60 mins by luciferin-based luminescence assay
T1 sequence (P21397 whole entry): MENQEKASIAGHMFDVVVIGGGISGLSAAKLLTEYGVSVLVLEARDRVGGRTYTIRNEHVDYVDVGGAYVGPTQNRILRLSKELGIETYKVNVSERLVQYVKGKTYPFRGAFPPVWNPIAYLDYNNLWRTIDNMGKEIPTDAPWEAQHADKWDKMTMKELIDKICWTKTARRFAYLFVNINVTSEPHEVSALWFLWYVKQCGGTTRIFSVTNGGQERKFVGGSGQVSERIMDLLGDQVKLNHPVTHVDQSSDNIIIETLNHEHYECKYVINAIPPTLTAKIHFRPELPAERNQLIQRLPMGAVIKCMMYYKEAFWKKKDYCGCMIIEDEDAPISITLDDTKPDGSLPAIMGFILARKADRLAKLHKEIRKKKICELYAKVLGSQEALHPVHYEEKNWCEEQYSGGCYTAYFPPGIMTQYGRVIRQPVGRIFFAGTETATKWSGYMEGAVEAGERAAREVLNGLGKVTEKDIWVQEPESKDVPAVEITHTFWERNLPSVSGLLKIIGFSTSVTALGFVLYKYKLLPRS

[20] = molecular target: T2, Amine oxidase [flavin-containing] B (Homo sapiens, UniProt P27338); test: Inhibition of MAO-B (unknown origin) incubated for 10 mins followed by MAO substrate addition and measured after 60 mins by luciferin-based luminescence assay
T2 sequence (P27338 whole entry): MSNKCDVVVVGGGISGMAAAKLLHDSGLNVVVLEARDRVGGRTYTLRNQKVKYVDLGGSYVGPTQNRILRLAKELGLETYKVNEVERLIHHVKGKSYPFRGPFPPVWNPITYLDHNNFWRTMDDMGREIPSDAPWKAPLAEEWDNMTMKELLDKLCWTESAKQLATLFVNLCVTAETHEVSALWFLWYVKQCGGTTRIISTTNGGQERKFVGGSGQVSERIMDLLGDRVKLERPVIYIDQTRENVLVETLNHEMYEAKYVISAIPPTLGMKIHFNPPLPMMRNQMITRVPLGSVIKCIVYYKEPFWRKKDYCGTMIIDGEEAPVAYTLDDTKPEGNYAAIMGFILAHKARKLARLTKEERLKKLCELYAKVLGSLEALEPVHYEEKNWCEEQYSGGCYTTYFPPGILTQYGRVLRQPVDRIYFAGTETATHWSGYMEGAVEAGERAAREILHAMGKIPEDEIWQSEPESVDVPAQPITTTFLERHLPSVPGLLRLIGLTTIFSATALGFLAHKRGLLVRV

[21] = Drug concentration in cynomolgus monkey plasma at 0.1 mg/kg, iv measured after 5 mins by LC-MS/MS analysis; format: ADME, organism-based, Macaca fascicularis
[22] = AUC(0 to 6 hrs) in cynomolgus monkey at 0.1 mg/kg, iv by LC-MS/MS analysis; format: ADME, organism-based, Macaca fascicularis; parameters: dose 0.1 mg/kg, route iv; details: in vivo
[23] = Half life in cynomolgus monkey at 0.1 mg/kg, iv by LC-MS/MS analysis; format: ADME, organism-based, Macaca fascicularis; details: in vivo
[24] = Total clearance in cynomolgus monkey at 0.1 mg/kg, iv by LC-MS/MS analysis; format: ADME, organism-based, Macaca fascicularis; details: in vivo
[25] = Volume of distribution at steady state in cynomolgus monkey at 0.1 mg/kg, iv by LC-MS/MS analysis; format: ADME, organism-based, Macaca fascicularis; details: in vivo, read-out: Vdss
[26] = Unbound drug concentration in Sprague-Dawley rat plasma assessed as free fraction ratio; format: ADME, cell-free
[27] = Unbound drug concentration in cynomolgus monkey plasma assessed as free fraction ratio; format: ADME, cell-free, Macaca fascicularis
[28] = Unbound drug concentration in Sprague-Dawley rat brain homogenate assessed as free fraction ratio; format: ADME, tissue-based
[29] = Lipophilicity, logD of the compound at pH 7.4; format: physicochemical; details: buffer
[30] = Drug uptake in rhesus monkey cerebellum administered intravenously and measured after 90 to 180 mins by PET/MRI imaging analysis; format: ADME, tissue-based, Macaca mulatta; details: in vivo, iv, time 90-180 min
[31] = Drug uptake in rhesus monkey anterior cingulate cortex administered intravenously and measured after 90 to 180 mins by PET/MRI imaging analysis; format: ADME, tissue-based, Macaca mulatta; details: in vivo, iv, time 90-180 min
[32] = Drug uptake in rhesus monkey frontal lobe administered intravenously and measured after 90 to 180 mins by PET/MRI imaging analysis; format: ADME, tissue-based, Macaca mulatta; details: in vivo, iv, time 90-180 min
[33] = Drug uptake in rhesus monkey caudate nucleus administered intravenously and measured after 90 to 180 mins by PET/MRI imaging analysis; format: ADME, tissue-based, Macaca mulatta; details: in vivo, iv, time 90-180 min
[34] = Drug uptake in rhesus monkey pons administered intravenously and measured after 90 to 180 mins by PET/MRI imaging analysis; format: ADME, tissue-based, Macaca mulatta; details: in vivo, iv, time 90-180 min
[35] = Drug uptake in rhesus monkey cerebellum administered intravenously pretreated with N-(4-[(1S,2R)/(1R,2S)-2-[(Cyclopropylmethyl)amino)cyclopropyl)phenyl)-6-fluoro-4-methylpyridine-3-carboxamide followed by compound addition and measured after 90 to 180 mins by PET/MRI imaging analysis; format: ADME, Macaca mulatta; details: in vivo, iv, time 90-180 min

efflux ratio at 1 h, 1 µM [1]: 1.3
Structure (SMILES): Cc1nc(F)ccc1N(C)C(=O)c1ccc([C@@H]2C[C@H]2NCC2CC2)cc1
IC50 (LSD1/CoREST complex): 5.4 nM

Drug uptake [4]: Bld
Drug metabolism [5]: 0.87 nmol/g
Drug metabolism [6]: 1.16 nmol/g
Structure (SMILES): CN(C(=O)c1ccc([C@@H]2C[C@H]2NCC2CC2)cc1)c1ccc(F)nc1

efflux ratio at 1 h, 1 µM [1]: 1.4
Drug metabolism [7]: 0.1 nmol/g
Drug metabolism [8]: 0.24 nmol/g
Structure (SMILES): Cc1cc(F)ncc1N(C)C(=O)c1ccc([C@@H]2C[C@H]2NCC2CC2)cc1
IC50 (LSD1/CoREST complex): 3.9 nM

efflux ratio at 1 h, 1 µM [1]: 0.66
Structure (SMILES): O=C(c1ccc([C@@H]2C[C@H]2NCC2CC2)cc1)N1CCC(F)CC1
IC50 (LSD1/CoREST complex): 24 nM

efflux ratio at 1 h, 1 µM [1]: 0.64
Structure (SMILES): O=C(c1ccc([C@@H]2C[C@H]2NCC2CC2)cc1)N1CC(F)C1
IC50 (LSD1/CoREST complex): 64 nM

efflux ratio at 1 h, 1 µM [1]: 0.91
Drug metabolism [11]: 0.21 nmol/g
Retention_time [10]: 11.85 min
Drug metabolism [12]: Metabolite_Notdetected
Drug metabolism [13]: Metabolite_Notdetected
Drug metabolism [14]: Metabolite_Notdetected
Drug metabolism [15]: Metabolite_Notdetected
Drug metabolism [16]: Metabolite_Detected
Drug metabolism [17]: Metabolite_Notdetected
Activity [18]: Active
IC50 [19]: > 100000 nM
IC50 [20]: 33000 nM
concentration at 5 min [21]: 31.2 ng/mL
AUC(0-t) [22]: 51.6 ng·h/mL
half-life [23]: 1.75 h
clearance [24]: 32.5 mL/min/kg
Vd [25]: 3.13 L/kg
Ratio [26]: 0.69
Ratio [27]: 0.67
Ratio [28]: 0.277
logD [29]: 1.62
Structure (SMILES): Cc1cc(F)ncc1C(=O)Nc1ccc([C@@H]2C[C@H]2NCC2CC2)cc1
IC50 (LSD1/CoREST complex): 7.2 nM

Further lines, the molecule ahead of its results:

Structure (SMILES): O=C(Nc1ccc([C@@H]2C[C@H]2NCC2CC2)cc1)c1ccc(F)nc1
IC50 (LSD1/CoREST complex): 10 nM
efflux ratio at 1 h, 1 µM [1]: 0.8
Drug metabolism [2]: 0.28 nmol/g
Drug metabolism [3]: Metabolite_Notdetected

Structure (SMILES): CN(C(=O)c1ccc(CCC(=O)O)cc1)c1ccc(F)nc1
Drug uptake [9]: Not Active

Structure (SMILES): Cc1cc(F)ncc1C(=O)O
Retention_time [10]: 2.19 min

Structure (SMILES): CC(=O)N(C)c1ccc(F)nc1
Drug uptake [9]: Active

Structure (SMILES): Cc1cc([18F])ncc1C(=O)Nc1ccc([C@@H]2C[C@H]2NCC2CC2)cc1
Drug uptake [30]: Active
Drug uptake [31]: Active
Drug uptake [32]: Active
Drug uptake [33]: Active
Drug uptake [34]: Active
Drug uptake [35]: Not Active
